Literature values as cited in US8633332B2, “Efficient isolation of cimiracemate A, and methods of use” (Purapharm Company Limited, priority 2009, dated 2014).
“Also recorded” adds a separate entry of the source.

Experiments:
[1] = system: TNF-α; settings: human macrophages
[2] = system: MAP kinase; settings: human macrophages
[3] = system: specific transcription factors; settings: human macrophages, LPS-induced

COc1ccc(/C=C/C(=O)OCC(=O)Cc2ccc(O)c(O)c2)cc1O [Cimiracemate A]
suppression of LPS-induced TNF-α production [1]: suppresses; also recorded: suppress
inhibition of LPS-induced MAP kinase activities (specific kinase phosphorylation) [2]: suppresses; also recorded: inhibit
inhibition of activation of specific transcription factors [3]: suppresses; also recorded: inhibit
